Data on two compounds can be found in ChEMBL document CHEMBL1144762, “Diterpenoids from the roots of Suregada glomerulata” (J Nat Prod, 2008).

Common to all, as to format: functional, cell-based
The nature of assay [1]: Cytotoxicity against human Bel 7402 cells by MTT assay. For orientation: Formazan colour is commonly taken as a measure of viable cells.
The test system of a further assay is HCT-8. As to the kind of experiment: Cytotoxicity against human HCT8 cells by MTT assay.
The nature of assay [2]: Cytotoxicity against human BGC 823 cells by MTT assay.
The test system of a further assay is A2780. As to the kind of experiment: Cytotoxicity against human A2780 cells by MTT assay.
Another assay relates to A549. The assay is described as follows: Cytotoxicity against human A549 cells by MTT assay.

≈ marks a conversion by molar mass, not a printed value. A value given as a limit tells only on which side of the number the result lay.

As for `O=c1[nH]cc(F)c(=O)[nH]1` [FLUOROURACIL], the IC50 (commonly the concentration that gives 50% inhibition) in assay [1] amounted to 0.54 µg/mL (≈ 4.15 µM); in the assay with HCT-8, 0.54 µg/mL (≈ 4.15 µM); in assay [2], 0.7 µg/mL (≈ 5.38 µM); in the assay with A2780, 0.65 µg/mL (≈ 5 µM); with A549 it was 0.18 µg/mL (≈ 1.38 µM).
With `CC1=C2C(=C[C@H]3[C@]4(C)CCC(=O)C(C)(C)[C@H]4CC[C@]34O[C@H]24)OC1=O`, the IC50 is 7.53 µg/mL (≈ 22.9 µM) in assay [1]; > 10 µg/mL in the assay with HCT-8; > 10 µg/mL in assay [2]; 8.22 µg/mL (≈ 25 µM) in the assay with A2780; > 10 µg/mL with A549.
